{"source": "patent US10919887B2", "about": "“Salts and solid forms of a monobactam antibiotic” (Novartis AG, priority 2015, dated 2021)", "key": {"[1]": {"tested_on": "E. coli NB27273-CDY0033 (KPC2)", "assay": "MIC by broth microdilution, isogenic E. coli expressing KPC2", "type": "cell-based", "conditions": "Escherichia coli, read-out: Inhibitory Concentration (MIC) Ec KPC2 Iso", "experimental": "(§1) Bacterial isolates were cultivated from −70° C. frozen stocks by two consecutive overnight passages at 35° C. in ambient air on 5% blood agar (Remel, Lenexa, Kans.). Quality control and P. aeruginosa ATCC 27853) is from the American Type Culture Collection (ATCC; Rockville, Md.) and PAO1 was received from Dr. K. Poole.\nStrain NB27273 (BW25113 pspB::Km^r) was obtained from the Keio transposon insertion collection. The strain has the pspB gene replaced by a kanamycin resistance marker (BW25113 pspB::Km^r). This strain was cured of the transposon in pspB via FLP recombinase using published methodology. The resulting strain, BW25113 pspB, was used as a host for multicopy vectors expressing key β-lactamases. Multicopy plasmids directing constitutive expression of β-lactamases were established as follows: Synthetic, codon optimized genes encoding E. coli KPC2 and SHV12-lactamases were made by DNA2.0 (Palo Alto, Calif.). Each of the synthetic fragments were designed to contain NotI and NcoI restriction sites at their termini, allowing ligation into a NotI/NcoI digested pET28a(+) derivative for protein expression. […]"}, "E. coli strain 25922": {"tested_on": "E. coli strain 25922", "assay": "MIC by broth microdilution, E. coli strain 25922", "type": "cell-based", "conditions": "Escherichia coli, salt: none, read-out: Inhibitory Concentration (MIC) Ec 25922", "experimental": "as §1\nMinimal Inhibitory Concentrations (MICs) were determined by the broth microdilution method in accordance with Clinical and Laboratories Institute (CLSI) guidelines. In brief, fresh overnight bacterial cultures were suspended in sterile saline, and adjusted to a 0.5 McFarland turbidity standard. Bacterial suspensions were then diluted in cation adjusted Mueller-Hinton Broth (MHB II; BBL) to yield a final inoculum of approximately 5×10^5 colony-forming units (CFU)/mL. A master plate of antibiotics was prepared at a concentration equivalent to hundred-fold the highest desired final concentration in 100% dimethyl sulfoxide (DMSO). […] The assay plates were read using a microtiter plate reader (Molecular Devices) at 600 nm as well as by visual observation with a reading mirror. The lowest concentration of the compound that prevented visible growth was recorded as the MIC. Performance of the assay was monitored by testing aztreonam against laboratory quality control strains in accordance with guidelines of the CLSI."}, "Photochemical stability": {"assay": "Photochemical stability", "type": "physicochemical", "experimental": "Compound X (500 mg) and L-arginine (332.5 mg) are combined in a vial. Saccharose (crystalline, pyrogen-free sucrose: 1000 mg) is added along with water suitable for injection (8.00 mL). The pH of the solution is adjusted, if necessary, using 1.0N HCl or 1.0N NaOH to arrive at a pH of 5.0±0.5, preferably a pH of 5.0±0.2. This provides a solution containing about 62.5 mg/mL of Compound X as an arginine salt. This solution can be filtered if necessary, and can be lyophilized to provide a white or off-white solid (lyophilizate). The lyophilized solid can be reconstituted with sterile water or a pharmaceutically acceptable aqueous carrier such as isotonic saline or dextrose to provide a solution suitable for intravenous administration. The lyophilizate should be stored in a container that excludes light to protect the lyophilizate from photodegradation. This process can be scaled up or down to provide unit dosages for storage and distribution, or bulk material that can be further processed as desired.\nIn one embodiment of the invention, Compound X is packaged in a container that substantially reduces exposure to light, preferably in an atmosphere at a relative humidity of 25-50% humidity and more preferably at a relative humidity of 30-40% or 30-45%."}, "[2]": {"assay": "Stability of Compound X and its salts in aqueous solution", "type": "physicochemical", "conditions": "in solution, before addition of arginine or other base", "source_text": "It is important for a drug product to be stable enough to avoid significant degradation when it is shipped and stored under commercially practical conditions. The inventors have discovered that Compound X in solution is preferably used and stored at a pH between 4 and 6, preferably between 4.0 and 5.5, for maximum stability in the presence of moisture. Optimal solution stability is achieved at a pH of about 4.0 to 5.5 Accordingly, the invention provides pharmaceutical compositions comprising Compound X at a pH between 4 and 6, preferably between 4.0 and 5.5, and more preferably at a pH of about 5±0.5 or at pH of 5±0.2. Suitable compositions comprise Compound X in an aqueous solution, such as a dextrose or saline solution, which may be isotonic, and may contain other substances such as stabilizers, antioxidants, buffers or pH modifiers, nutrients, and the like. In some of these embodiments, the desired pH is achieved by combining Compound X and a pH modifier suitable to achieve the desired pH in an aqueous solution. Suitable pH modifiers include but are not limited to sodium hydroxide, sodium carbonate, sodium bicarbonate, potassium carbonate, potassium hydroxide, amines such as TRIS (tris(hydroxymethyl)aminomethane), and amino acids such as arginine, lysine, histidine, and the like. Known monobactams, including aztreonam, have been formulated with arginine. […]"}}}
{"compound": "Nc1nc(/C(=N/OC2(C(=O)O)CC2)C(=O)N[C@@H]2C(=O)N(S(=O)(=O)O)[C@@H]2CN2CCOC2=O)cs1", "note": "[Compound X, 1-(((Z)-(1-(2-aminothiazol-4-yl)-2-oxo-2-(((3S,4R)-2-oxo-4-((2-oxooxazolidin-3-yl)methyl)-1-sulfoazetidin-3-yl)amino)ethylidene)amino)oxy)cyclopropanecarboxylic acid]", "values": [{"measurement": "MIC", "setting": "[1]", "value": 125, "unit": "µg/mL"}, {"measurement": "MIC", "setting": "E. coli strain 25922", "value": 250, "unit": "µg/mL"}, {"measurement": "photochemical stability", "setting": "Photochemical stability", "value": "degrade photochemically"}, {"measurement": "hydrolytic stability in water", "setting": "[2]", "value": "subject to hydrolytic degradation in water in the absence of a base or outside the pH range of 4-6"}]}
